Results published in patent publication US20210038668A1, “TRADITIONAL CHINESE MEDICINE COMPOSITION FOR PREVENTING AND/OR TREATING ISCHEMIC REPERFUSION INJURY” (TASLY PHARMACEUTICAL GROUP CO., LTD., priority 2018, published 2021).

Columns and labels:
Type in all cases: in vivo, C57BL/6 mice
[1] = system: 8-OHdG; test: ELISA of 8-OHdG in brain tissue; conditions: brain tissue 24 hours after administration; tPA 10 mg/kg alone or + T541 20 mg/kg or ingredients at Table 7 doses
From the text: To compare the therapeutical effect on reperfusion injury caused by tPA thrombolysis between the traditional Chinese medicinal composition of the present invention and each ingredient (total saponins of Astragalus, the experiment was divided into the following group (tPA is combined with T541, individual ingredient thereof and compatibility of any two ingredients) specifically as follows: tPA+total saponins of Astragalus (tPA+HQ), tPA+ salvianolic acids (tPA+DS), tPA+Panax notoginseng saponins (tPA+SQ), tPA+ total saponins of Astragalus+salvianolic acids (tPA+HQ+DS), tPA+ total saponins of Astragalus+Panax notoginseng saponins (tPA+HQ+SQ), tPA+ salvianolic acids+Panax notoginseng saponins (tPA+DS+SQ) and tPA+T541. Normal saline served as an isovolumetric control. The usage number in each group is 6.
ELISA adsorption kit was used to measure the change on the content of MDA, 8-hydroxyl-2′-deoxyguanosine (8-OHdG), adenosine triphosphate (ATP), adenosine diphosphate (ADP) and adenosine monophosphate (AMP) in the penumbra field of brain tissue cortex of the mode, and the change on the activity of mitochondrial complexes I, II, IV and V. 6 samples were used to repeat the independent experiment for at least three times for each group of data.

[2] = system: VE-cadherin; test: Western blotting of VE-cadherin, cortex of ischemic penumbra; conditions: brain tissue 24 hours after administration, sham = 1.00; tPA 10 mg/kg alone; T541 20 mg/kg + tPA 10 mg/kg
Experimental: After reperfused for 24 hours, mice were perfused by normal saline; Western blotting analysis was conducted to the penumbra field of infarcted right cerebral cortex. After perfused, mice brain tissue was taken out; cerebellum and prefrontal lobe were cut off; the brain tissue of right brain close to 1 cm of the central joint of left and right hemispheres along the sagittal view; infarcted penumbra field of the rest tissues was cut off along an 45° angle; the cerebral cortex of the penumbra field was peeled off and preserved at low temperature. Right cerebral cortex was taken and added 1×RIPA lysate and a Cocktail protease inhibitor (1:100, Cell Signaling Technology, US) for full pyrolysis and ultrasonic treatment, and then 17000 g were centrifuged for 30 minutes. Supernatant was taken and added 5×loading buffer by volume, boiled for 20 minutes in boiling water, and then preserved at −80° C. Excessive supernatant was taken out and quantified by a BCA protein quantification liquor (ThermoScientific, US) to measure absorbance value at 560 nm of ELIASA and to calculate the protein concentration according to a standard curve. […] The density of electrophoretic strips was analyzed by an image analysis software Quantityone. […]

[3] = system: blood flow of cerebral cortex; test: Cerebral blood flow by Laser Doppler Flowmetry
Experimental: Mice were anesthetized via intraperitoneal injection by pentobarbital sodium (2%, 45 mg/kg), and neck kin was sterilized. A median incision was cut on the neck, exposed and isolated to obtain arteria carotis communis; a waterproof cushion was used to isolate arteria carotis communis with the length of about 2.5-3 mm from surrounding tissues. The isolated arteria carotis communis was wrapped by a filter paper soaked by 10% FeCl3 for about 1 mm (width), and the filter paper was removed 3 minutes later, the outside of blood vessel was washed by 0.9% normal saline. The waterproof cushion was removed. The neck incision was sutured. The start of Fe3+ stimulation was defined as the beginning of ischemia, and those mice meeting the following conditions were selected into the group: the blood vessel was blocked at the maximum diameter of the neck thrombus 10 minutes after ischemia; the blood flow of the carotid artery distal end was less than 20% of the base value 15 minutes after ischemia; and the thrombus was stable 4.5 hours after ischemia (before reperfusion); the carotid artery vessel at 60% and more of the diameter was blocked by the maximum diameter of the thrombus.
Mice were treated by medicaments or normal saline according to random grouping results 4.5 hours after ischemia. Mice femoral vein was intubated, and left femoral vein was injected tPA (tissue plasminogen activator) or normal saline; right femoral vein was injected the traditional Chinese medicinal composition of the present invention or normal saline; 10% of the total dose was injected via an injection pump, and the rest 90% were continuously injected intravenously for 1 hour with the rate of 0.1 ml/h. Three proportion groups were selected to the traditional Chinese medicinal composition of the present invention respectively below:
A computer-linked Laser Doppler Flowmetry was used to measure the blood flow of cerebral cortex in the dominant region of bilateral middle cerebral arteries. Anesthetized mice were placed on a board in supine position; skin on the parietal bone of both sides was cut to fully expose the parietal bone; a computer-linked low-energy He—Ne laser probe was placed away 16-18 cm on the parietal bone to detect the blood flow of pia mater in the blood supply region of bilateral middle cerebral arteries of mice before ischemia (namely, a base value), 10 minutes after ischemia, 4.5 hours after ischemia (namely, before reperfusion), 1 hour after reperfusion, 2 hours after reperfusion and 24 hours after reperfusion. A cerebral blood flow analysis software LDPIwin 3.1 (PeriScan PIM3 System, PERIMED, Stockholm, Sweden) was used to calculate the blood flow of cerebral cortex in the same region dominated by bilateral MCA.

[4] = system: cerebral infarction; test: TTC infarct size, mice after thrombolysis; conditions: 24 h after administration, tPA 10 mg/kg alone, T541 20 mg/kg + tPA 10 mg/kg
Experimental: After reperfused for 24 hours, mice were perfused via heart by a PBS buffer precooled at 4° C. and separated brain via craniotomy; the brain was cut from front to back into 5 slices in a brain stereotaxic apparatus; bleeding condition was rapidly shoot in cold condition; then slices were put into 2% triphenyltetrazolium chloride, TTC for incubation for 15 minutes at […]; TTC staining was conducted. Non-infarct region was stained red and infarct region was not stained and still white. Brain TTC staining images were shoot and IamgeJ (Bethesda, Md., USA) was used to calculate a percentage of TTC staining infarct size in the total area of brain, and evaluate the degree of cerebral infarction.

[5] = before administration, groups: tPA 10 mg/kg alone, T541 20 mg/kg, T141 12 mg/kg, T582 15 mg/kg each + tPA 10 mg/kg
[6] = iv, tPA 10 mg/kg alone, T541 20 mg/kg, T141 12 mg/kg, T582 15 mg/kg each + tPA 10 mg/kg

## tPA: tissue-type plasminogen activator (tPA) for thrombolysis
[1]
  8-OHdG: 1.84 ± 0.11
[2]
  VE-cadherin/β-actin: 0.53 ± 0.07
[3]; [5]
  Cerebral blood flow, 10 minutes after FeCl3 simulation: 55.20 ± 5.69
  Cerebral blood flow, Before FeCl3 simulation: 100.25 ± 1.19
[3]; high-dose T541 or tPA simply given, T141, T582 with tPA
  recovery of brain blood flow (in words): no obvious recovery of the brain blood flow
[3]; [6]
  Cerebral blood flow, 5.5 hours after FeCl3 simulation (1 hour after administration): 47.56 ± 6.13
  Cerebral blood flow, 6.5 hours after FeCl3 simulation (2 hours after administration): 41.46 ± 4.49
  Cerebral blood flow, 28.5 hours after FeCl3 simulation (24 hours after administration): 42.40 ± 4.61
[3]; start of administration, groups: tPA 10 mg/kg alone, T541 20 mg/kg, T141 12 mg/kg, T582 15 mg/kg each + tPA 10 mg/kg
  Cerebral blood flow, 4.5 hours after FeCl3 simulation: 49.58 ± 7.44
[4]
  Infarct size: 15.68 ± 4.81
